The record followed here is patent US20250353891A1 (MEDIMMUNE LIMITED, priority 2022, published 2025).

A word on the EC50: it is the concentration at which the effect is half-maximal.

Test [1] deals with human GLP-1 receptor (hGLP-1R) (Homo sapiens, UniProt P43220). As to the kind of experiment: cAMP production (HTRF) in CHO cells expressing hGLP-1R. It is filed as cell-based. The arrangement: expressed in transfected cells. As to conditions: for EC50: Table 6, peptides modified at position 17, cAMP in CHO hGLP-1R cells, geometric mean, read-out: hGLP-1R EC50; for % Relative Potency Ratio: Table 6, % GLP-1R activity relative to GLP-1 / % GlucR activity relative to glucagon. Put shortly: (§1)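 Potency values represent EC50 from 4-parameter logistic curves of HTRF % Delta F signal. Receptor-expressing CHO cells (hGCGR 2×10^5 cells/mL, hGLP-1R 1×10^5 cells/mL) were exposed for 30 min at room temperature before two-step cAMP detection.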

In test [2] the target is human glucagon receptor (hGCGR) (Homo sapiens, UniProt P47871). Description: cAMP production (HTRF) in CHO cells expressing hGCGR. It is filed as cell-based. The arrangement: expressed in transfected cells. Conditions: Table 6, peptides modified at position 17; cAMP in CHO hGCGR cells; geometric mean; read-out: hGluc-R EC50. The gist of the method:
as §1
Background: Changes in cAMP serve as a functional read-out for many G protein-coupled receptors.

Starred links: 1 amine or outer side, 2 acyl side, 3 side chain; linkers in the order of their positions; H or OH if unused. Non-standard residues stand in square brackets, D forms with d. Residues, ends and D or L forms follow the SMILES beside them. Groups on a side chain read outwards from the residue. *: point of attachment. γGlu = O=C(O)[C@H](CCC(=O)[*:2])N[*:1]; Stearoyl = CCCCCCCCCCCCCCCCCC(=O)*; Palmitoyl = CCCCCCCCCCCCCCCC(=O)*; αMeF = C[C@](N)(Cc1ccccc1)C(=O)O; PEG2 = NCCOCCOCCC(=O)O; Aib = CC(C)(N)C(=O)O

human glucagon receptor (hGCGR), sequence (P47871 26-477): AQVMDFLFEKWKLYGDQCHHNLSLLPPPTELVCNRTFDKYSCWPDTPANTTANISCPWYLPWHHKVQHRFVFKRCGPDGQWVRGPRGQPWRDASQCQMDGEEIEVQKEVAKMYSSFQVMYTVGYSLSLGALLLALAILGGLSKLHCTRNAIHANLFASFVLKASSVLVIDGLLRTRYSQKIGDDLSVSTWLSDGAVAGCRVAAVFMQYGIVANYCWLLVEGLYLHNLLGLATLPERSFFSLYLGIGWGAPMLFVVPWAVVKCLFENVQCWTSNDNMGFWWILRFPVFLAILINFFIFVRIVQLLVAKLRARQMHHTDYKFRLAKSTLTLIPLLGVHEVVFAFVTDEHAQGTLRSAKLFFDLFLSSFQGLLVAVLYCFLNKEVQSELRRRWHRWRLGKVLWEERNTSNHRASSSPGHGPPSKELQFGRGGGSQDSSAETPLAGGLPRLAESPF
human GLP-1 receptor (hGLP-1R), sequence (P43220 24-463): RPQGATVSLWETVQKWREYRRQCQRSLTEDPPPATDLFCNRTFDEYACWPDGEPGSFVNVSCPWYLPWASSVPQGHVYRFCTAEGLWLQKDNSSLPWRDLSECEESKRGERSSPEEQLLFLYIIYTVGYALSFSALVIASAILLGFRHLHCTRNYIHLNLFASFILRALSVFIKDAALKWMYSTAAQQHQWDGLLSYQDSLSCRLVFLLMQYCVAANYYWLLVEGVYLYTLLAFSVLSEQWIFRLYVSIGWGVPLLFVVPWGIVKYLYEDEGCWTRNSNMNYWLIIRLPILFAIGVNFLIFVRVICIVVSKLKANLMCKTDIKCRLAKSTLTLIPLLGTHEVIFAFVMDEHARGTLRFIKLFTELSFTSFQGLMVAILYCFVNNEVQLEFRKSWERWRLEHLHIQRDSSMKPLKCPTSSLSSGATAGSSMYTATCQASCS

Consider `CCCCCCCCCCCCCCCC(=O)N[C@@H](CCC(=O)N[C@@H](CCC(=O)NCCOCCOCCC(=O)NCCOCCOCCC(=O)NCCCC[C@H](NC(=O)[C@H](CO)NC(=O)[C@H](CC(=O)O)NC(=O)[C@H](CC(C)C)NC(=O)[C@](C)(Cc1ccccc1)NC(=O)[C@H](CCCCN)NC(=O)[C@H](CO)NC(=O)[C@@H](NC(=O)[C@H](CC(=O)O)NC(=O)[C@H](CO)NC(=O)[C@@H](NC(=O)[C@](C)(Cc1ccccc1)NC(=O)[C@H](CO)NC(=O)CNC(=O)[C@H](CCC(N)=O)NC(=O)C(C)(C)NC(=O)[C@@H](N)Cc1c[nH]cn1)[C@@H](C)O)C(C)C)C(=O)N[C@@H](C)C(=O)N[C@@H](C)C(=O)N[C@@H](CCC(N)=O)C(=O)N[C@@H](CC(=O)O)C(=O)N[C@H](C(=O)N[C@H](C(=O)N[C@@H](CCC(N)=O)C(=O)N[C@H](C(=O)N[C@H](C(=O)N[C@@H](C)C(=O)N[C@@H](CC(N)=O)C(N)=O)[C@@H](C)CC)[C@@H](C)CC)C(C)C)[C@@H](C)CC)C(=O)O)C(=O)O` [Peptide 75] (H-H[Aib]QGS[αMeF]TSDVSK[αMeF]LDSK([PEG2-PEG2-γGlu-γGlu-Palmitoyl])AAQDIVQIIAN-NH2; N-terminus assumed), for which, in test [1], the EC50 came out at 0.0189 nM and the “% Relative Potency Ratio” value is 293.5. In test [2], the EC50 stood at 2.8 nM.
The matching figures for `CCCCCCCCCCCCCCCCCC(=O)N[C@@H](CCC(=O)N[C@@H](CCC(=O)NCCOCCOCCC(=O)NCCOCCOCCC(=O)NCCCC[C@H](NC(=O)[C@H](CO)NC(=O)[C@H](CC(=O)O)NC(=O)[C@H](CC(C)C)NC(=O)[C@](C)(Cc1ccccc1)NC(=O)[C@H](CCCCN)NC(=O)[C@H](CO)NC(=O)[C@@H](NC(=O)[C@H](CC(=O)O)NC(=O)[C@H](CO)NC(=O)[C@@H](NC(=O)[C@](C)(Cc1ccccc1)NC(=O)[C@H](CO)NC(=O)CNC(=O)[C@H](CCC(N)=O)NC(=O)C(C)(C)NC(=O)[C@@H](N)Cc1c[nH]cn1)[C@@H](C)O)C(C)C)C(=O)N[C@@H](C)C(=O)N[C@@H](C)C(=O)N[C@@H](CCC(N)=O)C(=O)N[C@@H](CC(=O)O)C(=O)N[C@@](C)(Cc1ccccc1)C(=O)N[C@H](C(=O)N[C@@H](CCC(N)=O)C(=O)NC(C)(C)C(=O)N[C@H](C(=O)N[C@H](C(=O)N[C@@H](CCC(=O)O)C(=O)NCC(=O)NCC(N)=O)C(C)C)C(C)C)C(C)C)C(=O)O)C(=O)O` [Peptide 76] (H-H[Aib]QGS[αMeF]TSDVSK[αMeF]LDSK([PEG2-PEG2-γGlu-γGlu-Stearoyl])AAQD[αMeF]VQ[Aib]VVEGG-NH2; N-terminus assumed): 0.00178 nM, 378.6 and 0.34 nM.
Consider `CCCCCCCCCCCCCCCCCC(=O)N[C@@H](CCC(=O)N[C@@H](CCC(=O)NCCOCCOCCC(=O)NCCOCCOCCC(=O)NCCCC[C@H](NC(=O)[C@H](CO)NC(=O)[C@H](CC(=O)O)NC(=O)[C@H](CC(C)C)NC(=O)[C@](C)(Cc1ccccc1)NC(=O)[C@H](CCCCN)NC(=O)[C@H](CO)NC(=O)[C@@H](NC(=O)[C@H](CC(=O)O)NC(=O)[C@H](CO)NC(=O)[C@@H](NC(=O)[C@](C)(Cc1ccccc1)NC(=O)[C@H](CO)NC(=O)CNC(=O)[C@H](CCC(N)=O)NC(=O)C(C)(C)NC(=O)[C@@H](N)Cc1c[nH]cn1)[C@@H](C)O)C(C)C)C(=O)N[C@@H](C)C(=O)N[C@@H](C)C(=O)N[C@@H](CCC(N)=O)C(=O)N[C@@H](CC(=O)O)C(=O)N[C@@](C)(Cc1ccccc1)C(=O)N[C@H](C(=O)N[C@@H](CCC(N)=O)C(=O)NC(C)(C)C(=O)N[C@@H](CC(C)C)C(=O)N[C@H](C(=O)N[C@@H](CO)C(=O)NCC(N)=O)[C@@H](C)CC)C(C)C)C(=O)O)C(=O)O` [Peptide 77] (H-H[Aib]QGS[αMeF]TSDVSK[αMeF]LDSK([PEG2-PEG2-γGlu-γGlu-Stearoyl])AAQD[αMeF]VQ[Aib]LISG-NH2; N-terminus assumed), for which, in test [1], the EC50 turned out to be 0.00868 nM and the “% Relative Potency Ratio” value is given as 55.5. Besides, in test [2], the concentration giving a half-maximal response (EC50) was 0.243 nM.
For the compound `CCCCCCCCCCCCCCCC(=O)N[C@@H](CCC(=O)N[C@@H](CCC(=O)NCCOCCOCCC(=O)NCCOCCOCCC(=O)NCCCC[C@H](NC(=O)[C@H](CO)NC(=O)[C@H](CC(=O)O)NC(=O)[C@H](CC(C)C)NC(=O)[C@](C)(Cc1ccccc1)NC(=O)[C@H](CCCCN)NC(=O)[C@H](CO)NC(=O)[C@@H](NC(=O)[C@H](CC(=O)O)NC(=O)[C@H](CO)NC(=O)[C@@H](NC(=O)[C@](C)(Cc1ccccc1)NC(=O)[C@H](CO)NC(=O)CNC(=O)[C@H](CCC(N)=O)NC(=O)[C@H](CO)NC(=O)[C@@H](N)Cc1c[nH]cn1)[C@@H](C)O)C(C)C)C(=O)N[C@@H](C)C(=O)N[C@@H](C)C(=O)N[C@@H](CCC(N)=O)C(=O)N[C@@H](CC(=O)O)C(=O)N[C@@](C)(Cc1ccccc1)C(=O)N[C@H](C(=O)N[C@@H](CCC(N)=O)C(=O)NC(C)(C)C(=O)N[C@@H](CC(C)C)C(=O)N[C@@H](CCC(=O)O)C(=O)N[C@@H](C)C(=O)NCC(=O)NCC(N)=O)C(C)C)C(=O)O)C(=O)O` [Peptide 79] (H-HSQGS[αMeF]TSDVSK[αMeF]LDSK([PEG2-PEG2-γGlu-γGlu-Palmitoyl])AAQD[αMeF]VQ[Aib]LEAGG-NH2; N-terminus assumed), in test [1], the EC50 came to 0.00173 nM and the “% Relative Potency Ratio” value turned out to be 12.2. For the same compound, in test [2], the EC50 came out at 0.0107 nM.
As to `CCCCCCCCCCCCCCCCCC(=O)N[C@@H](CCC(=O)N[C@@H](CCC(=O)NCCOCCOCCC(=O)NCCOCCOCCC(=O)NCCCC[C@H](NC(=O)[C@H](CO)NC(=O)[C@H](CC(=O)O)NC(=O)[C@H](CC(C)C)NC(=O)[C@](C)(Cc1ccccc1)NC(=O)[C@H](CCCCN)NC(=O)[C@H](CO)NC(=O)[C@@H](NC(=O)[C@H](CC(=O)O)NC(=O)[C@H](CO)NC(=O)[C@@H](NC(=O)[C@](C)(Cc1ccccc1)NC(=O)[C@H](CO)NC(=O)CNC(=O)[C@H](CCC(N)=O)NC(=O)[C@H](CO)NC(=O)[C@@H](N)Cc1c[nH]cn1)[C@@H](C)O)C(C)C)C(=O)N[C@@H](C)C(=O)N[C@@H](C)C(=O)N[C@@H](CCC(N)=O)C(=O)N[C@@H](CC(=O)O)C(=O)N[C@@](C)(Cc1ccccc1)C(=O)N[C@H](C(=O)N[C@@H](CCC(=O)O)C(=O)NC(C)(C)C(=O)N[C@@H](CC(C)C)C(=O)N[C@@H](CCC(=O)O)C(=O)N[C@@H](C)C(=O)NCC(=O)NCC(N)=O)C(C)C)C(=O)O)C(=O)O` [Peptide 81] (H-HSQGS[αMeF]TSDVSK[αMeF]LDSK([PEG2-PEG2-γGlu-γGlu-Stearoyl])AAQD[αMeF]VE[Aib]LEAGG-NH2; N-terminus assumed), the EC50 in test [1] amounted to 0.00119 nM; in test [2], 0.0135 nM. For the same compound, the “% Relative Potency Ratio” value in test [1] turned out to be 22.6.
Turning to `CCCCCCCCCCCCCCCCCC(=O)N[C@@H](CCC(=O)N[C@@H](CCC(=O)NCCOCCOCCC(=O)NCCOCCOCCC(=O)NCCCC[C@H](NC(=O)[C@H](CO)NC(=O)[C@H](CC(=O)O)NC(=O)[C@H](CC(C)C)NC(=O)[C@](C)(Cc1ccccc1)NC(=O)[C@H](CCCCN)NC(=O)[C@H](CO)NC(=O)[C@@H](NC(=O)[C@H](CC(=O)O)NC(=O)[C@H](CO)NC(=O)[C@@H](NC(=O)[C@](C)(Cc1ccccc1)NC(=O)[C@H](CO)NC(=O)CNC(=O)[C@H](CCC(N)=O)NC(=O)[C@H](CO)NC(=O)[C@@H](N)Cc1c[nH]cn1)[C@@H](C)O)C(C)C)C(=O)N[C@@H](C)C(=O)N[C@@H](C)C(=O)N[C@@H](CCC(N)=O)C(=O)N[C@@H](CC(=O)O)C(=O)N[C@@](C)(Cc1ccccc1)C(=O)N[C@H](C(=O)N[C@@H](CCC(N)=O)C(=O)NC(C)(C)C(=O)N[C@H](C(=O)N[C@H](C(=O)N[C@@H](CC(N)=O)C(=O)N[C@H](C(N)=O)[C@@H](C)O)[C@@H](C)CC)[C@@H](C)CC)C(C)C)C(=O)O)C(=O)O` [Peptide 83] (H-HSQGS[αMeF]TSDVSK[αMeF]LDSK([PEG2-PEG2-γGlu-γGlu-Stearoyl])AAQD[αMeF]VQ[Aib]IINT-NH2), in test [1], the EC50 was found to be 0.00104 nM and the “% Relative Potency Ratio” value amounted to 29.6. In test [2], the EC50 was 0.0156 nM.
With `CCCCCCCCCCCCCCCCCC(=O)N[C@@H](CCC(=O)N[C@@H](CCC(=O)NCCOCCOCCC(=O)NCCOCCOCCC(=O)NCCCC[C@H](NC(=O)[C@H](CO)NC(=O)[C@H](CC(=O)O)NC(=O)[C@H](CC(C)C)NC(=O)[C@](C)(Cc1ccccc1)NC(=O)[C@H](CCCCN)NC(=O)[C@H](CO)NC(=O)[C@@H](NC(=O)[C@H](CC(=O)O)NC(=O)[C@H](CO)NC(=O)[C@@H](NC(=O)[C@](C)(Cc1ccccc1)NC(=O)[C@H](CO)NC(=O)CNC(=O)[C@H](CCC(N)=O)NC(=O)[C@H](CO)NC(=O)[C@@H](N)Cc1c[nH]cn1)[C@@H](C)O)C(C)C)C(=O)N[C@@H](C)C(=O)N[C@@H](C)C(=O)N[C@@H](CCC(N)=O)C(=O)N[C@@H](CC(=O)O)C(=O)N[C@@](C)(Cc1ccccc1)C(=O)N[C@H](C(=O)N[C@@H](CCC(N)=O)C(=O)NC(C)(C)C(=O)N[C@@H](CC(C)C)C(=O)N[C@@H](CC(C)C)C(=O)N[C@@H](CC(N)=O)C(=O)N[C@H](C(N)=O)[C@@H](C)O)C(C)C)C(=O)O)C(=O)O` [Peptide 84] (H-HSQGS[αMeF]TSDVSK[αMeF]LDSK([PEG2-PEG2-γGlu-γGlu-Stearoyl])AAQD[αMeF]VQ[Aib]LLNT-NH2), in test [1], the EC50 came to 0.0028 nM and the “% Relative Potency Ratio” value is 31.7. The EC50 in test [2] was 0.0449 nM.
